The target of this assay is T1, Prostaglandin G/H synthase 2 (Homo sapiens, UniProt P35354).
T1 sequence (P35354 whole entry): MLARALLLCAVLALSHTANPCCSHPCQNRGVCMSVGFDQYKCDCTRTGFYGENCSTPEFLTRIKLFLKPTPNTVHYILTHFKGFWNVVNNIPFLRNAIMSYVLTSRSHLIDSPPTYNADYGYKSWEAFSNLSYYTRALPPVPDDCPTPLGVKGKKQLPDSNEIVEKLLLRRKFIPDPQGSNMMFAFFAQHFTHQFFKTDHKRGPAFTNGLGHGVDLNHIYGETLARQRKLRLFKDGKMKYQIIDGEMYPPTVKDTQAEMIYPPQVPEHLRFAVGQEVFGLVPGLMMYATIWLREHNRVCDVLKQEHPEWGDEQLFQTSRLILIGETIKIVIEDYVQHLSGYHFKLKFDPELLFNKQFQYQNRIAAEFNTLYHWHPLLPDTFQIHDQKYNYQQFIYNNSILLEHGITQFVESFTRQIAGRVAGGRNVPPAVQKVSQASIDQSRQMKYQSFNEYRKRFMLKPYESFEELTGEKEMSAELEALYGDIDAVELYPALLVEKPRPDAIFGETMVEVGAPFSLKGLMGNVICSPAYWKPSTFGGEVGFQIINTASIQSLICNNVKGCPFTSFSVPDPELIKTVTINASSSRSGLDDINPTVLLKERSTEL
Description: Inhibition of recombinant human COX2 expressed in baculovirus infected Sf9 insect cells using arachidonic acid as substrate preincubated for 10 mins followed by substrate addition and measured after 10 mins by ELISA. In general terms: An ELISA detects its analyte on a solid surface through an enzyme-linked reagent.

`CCC(=O)NS(=O)(=O)c1ccc(-c2c(-c3ccccc3)noc2C)cc1` [PARECOXIB]: the IC50 came out at 5 nM.

Usually IC50 stands for the concentration that inhibits the measured activity by half.
